According to patent US6677488B2, “Substituted biphenyl compounds for the treatment of inflammation” (G.D. Searle & Co., priority 1995, dated 2004):

With CS(=O)(=O)c1ccc(-c2ccccc2-c2ccc(F)cc2)cc1 [Example 1, 1-(4-Fluorophenyl)-2-[4-(methylsulfonyl)phenyl]benzene] the melting point was 178 to 179 °C. Compound NS(=O)(=O)c1ccc(-c2ccccc2-c2ccc(F)cc2)cc1 [Example 2, 4-[2-(4-Fluorophenyl)phenyl]benzenesulfonamide] has a melting point of 187.3 to 188.2 °C. In the case of NS(=O)(=O)c1ccc(-c2ccccc2-c2ccc(Cl)cc2)cc1 [Example 3, 4-[2-(4-Chlorophenyl)phenyl]benzenesulfonamide], the melting point is reported as 206.2 to 207 °C. COc1ccc(-c2ccccc2-c2ccc(S(C)(=O)=O)cc2)cc1F [Example 4, 2-Fluoro-1-methoxy-4-[2-[4-(methylsulfonyl)phenyl]phenyl]benzene] showed a melting point of 136.2 to 136.6 °C. Work on COc1ccc(-c2ccccc2-c2ccc(S(C)(=O)=O)cc2)cc1Cl [Example 5, 2-Chloro-1-methoxy-4-[2-[4-(methylsulfonyl)phenyl]phenyl]benzene] yielded a melting point of 161.5 to 162.3 °C. In the case of COc1ccc(-c2ccccc2-c2ccc(S(N)(=O)=O)cc2)cc1F [Example 6, 4-[2-(3-Fluoro-4-methoxyphenyl)phenyl]benzenesulfonamide], the melting point is reported as 143.5 to 145.5 °C (dec.). Compound COc1ccc(-c2ccccc2-c2ccc(S(N)(=O)=O)cc2)cc1Cl [Example 7, 4-[2-(3-Chloro-4-methoxyphenyl)phenyl]benzenesulfonamide] has a melting point of 179.5 to 180.2 °C. Work on CS(=O)(=O)c1ccc(-c2ccccc2-c2ccc(Cl)cc2)cc1 [Example 8, 1-(4-Chlorophenyl)-2-[4-(methylsulfonyl)phenyl]benzene] yielded a melting point of 180.2 to 180.6 °C. Compound NS(=O)(=O)c1ccc(-c2ccccc2-c2ccc(C(F)(F)F)cc2)cc1 [Example 9, 4-[2-[4-(Trifluoromethyl)phenyl]phenyl]benzenesulfonamide] has a melting point of 187.5 to 187.8 °C. Work on CS(=O)(=O)c1ccc(-c2ccccc2-c2ccc(F)c(Cl)c2)cc1 [Example 10, 2-Chloro-1-fluoro-4-[2-[4-(methylsulfonyl)phenyl]phenyl]benzene] yielded a melting point of 179.5 to 181.1 °C. With CS(=O)(=O)c1ccc(-c2cc(F)c(F)cc2-c2ccc(F)cc2)cc1 [Example 11, 1,2-Difluoro-4-(4-fluorophenyl)-5-[4-(methylsulfonyl)phenyl]benzene] the melting point was 172.8 to 173.5 °C. NS(=O)(=O)c1ccc(-c2ccccc2-c2ccc(F)c(Cl)c2)cc1 [Example 12, 4-[2-(3-Chloro-4-fluorophenyl)phenyl]benzenesulfonamide] showed a melting point of 192.5 to 193.2 °C. In the case of NS(=O)(=O)c1ccc(-c2cc(F)c(F)cc2-c2ccc(F)cc2)cc1 [Example 13, 4-[3,4-Difluoro-6-(4-fluorophenyl)phenyl]benzenesulfonamide], the melting point is reported as 190.2 to 191.5 °C. Compound CS(=O)(=O)c1ccc(-c2cc(F)c(F)cc2-c2ccc(F)c(Cl)c2)cc1 [Example 14, 1-(3-Chloro-4-fluorophenyl)-4,5-difluoro-2-[4-(methylsulfonyl)phenyl]benzene] has a melting point of 172.2 to 172.5 °C. Work on NS(=O)(=O)c1ccc(-c2c(F)c(F)c(F)c(F)c2-c2ccc(F)cc2)cc1 [Example 15, 4-[2,3,4,5-Tetrafluoro-6-(4-fluorophenyl)phenyl]benzenesulfonamide] yielded a melting point of 202 to 203 °C. Compound NS(=O)(=O)c1ccc(-c2cc(F)c(F)cc2-c2ccc(F)c(Cl)c2)cc1 [Example 16, 4-[2-(3-Chloro-4-fluorophenyl)-4,5-difluorophenyl]benzenesulfonamide] has a melting point of 162.5 to 162.8 °C. Work on CS(=O)(=O)c1ccc(-c2cc3c(cc2-c2ccc(F)cc2)OCO3)cc1 [Example 17, 5-(4-Fluorophenyl)-6-[4-(methylsulfonyl)phenyl]-1,3-benzodioxole] yielded a melting point of 173 to 174 °C. COc1ccc(-c2cc(F)c(F)cc2-c2ccc(S(C)(=O)=O)cc2)cc1Cl [Example 18, 1-(3-Chloro-4-methoxyphenyl)-4,5-difluoro-2-[4-(methylsulfonyl)phenyl]benzene] gave a melting point of 147.5 to 148.5 °C. Compound COc1ccc(-c2cc(F)c(F)cc2-c2ccc(S(C)(=O)=O)cc2)cc1F [Example 19, 1,2-Difluoro-4-(3-fluoro-4-methoxyphenyl)-5-[4-(methylsulfonyl)phenyl]benzene] has a melting point of 159.2 to 159.7 °C. With COc1ccc(-c2cc(F)c(F)cc2-c2ccc(S(N)(=O)=O)cc2)cc1Cl [Example 20, 4-[2-(3-Chloro-4-methoxyphenyl)-4,5-difluorophenyl]benzenesulfonamide] the melting point was 70 °C (dec.). Work on COc1ccc(-c2cc(F)c(F)cc2-c2ccc(S(N)(=O)=O)cc2)cc1F [Example 21, 4-[4,5-Difluoro-2-(3-fluoro-4-methoxyphenyl)phenyl]benzenesulfonamide] yielded a melting point of 132.2 to 132.8 °C. NS(=O)(=O)c1ccc(-c2cc3c(cc2-c2ccc(F)cc2)OCO3)cc1 [Example 22, 4-[6-(4-Fluorophenyl)-1,3-benzodioxol-5-yl]benzenesulfonamide] showed a melting point of 191 to 192.5 °C. Cc1ccc(-c2cc(F)c(F)cc2-c2ccc(S(C)(=O)=O)cc2)cc1 [Example 23, 1,2-Difluoro-4-(4-methylphenyl)-5-[4-(methylsulfonyl)phenyl]benzene] gave a melting point of 147 to 148 °C. Work on CS(=O)(=O)c1ccc(-c2cc(F)c(F)cc2-c2ccc3c(c2)OCO3)cc1 [Example 24, 5-[4,5-Difluoro-2-[4-(methylsulfonyl)phenyl]phenyl]-1,3-benzodioxole] yielded a melting point of 110 to 111 °C. For Cc1ccc(-c2cc(F)c(F)cc2-c2ccc(S(N)(=O)=O)cc2)cc1 [Example 25, 4-[4,5-Difluoro-2-(4-methylphenyl)phenyl]benzenesulfonamide], the melting point was 103 to 104 °C. In the case of NS(=O)(=O)c1ccc(-c2cc(F)c(F)cc2-c2ccc3c(c2)OCO3)cc1 [Example 26, 4-[2-(1,3-Benzodioxol-5-yl)-4,5-difluorophenyl]benzenesulfonamide], the melting point is reported as 142 to 143 °C. In the case of Cc1ccc(-c2cc(F)c(F)cc2-c2ccc(S(C)(=O)=O)cc2)cc1Cl [Example 27, 1-(3-Chloro-4-methylphenyl)-4,5-difluoro-2-[4-(methylsulfonyl)phenyl]benzene], the melting point is reported as 138 to 139 °C. In the case of CN(C)c1ccc(-c2cc(F)c(F)cc2-c2ccc(S(C)(=O)=O)cc2)cc1Cl [Example 28, 2-Chloro-4-[4,5-difluoro-2-[4-(methylsulfonyl)phenyl]phenyl]-N,N-dimethylbenzenamine], the melting point is reported as 129 to 130 °C. Compound Cc1ccc(-c2cc(F)c(F)cc2-c2ccc(S(N)(=O)=O)cc2)cc1Cl [Example 29, 4-[2-(3-Chloro-4-methylphenyl)-4,5-difluorophenyl]benzenesulfonamide] has a melting point of 139 to 140 °C. In the case of CN(C)c1ccc(-c2cc(F)c(F)cc2-c2ccc(S(N)(=O)=O)cc2)cc1Cl [Example 30, 4-[2-[3-Chloro-4-(N,N-dimethylamino)phenyl]-4,5-difluorophenyl]benzenesulfonamide], the melting point is reported as 193 to 194 °C. Compound Cc1cc(-c2cc(F)c(F)cc2-c2ccc(S(C)(=O)=O)cc2)ccc1F [Example 31, 1,2-Difluoro-4-(4-fluoro-3-methylphenyl)-5-[4-(methylsulfonyl)phenyl]benzene] has a melting point of 167.2 to 167.5 °C.
